Consider two substances from patent US20240353411A1, “HE4 DETECTING PEPTIDE AND USE THEREOF” (Ajou University Industry-Academic Cooperation Foundation, priority 2022, published 2024).

No end group written: not given here.

For experiment [1], the target named is T1, HE4 protein (Homo sapiens, UniProt Q14508).
T1 construct: purchased Sinobiological, PA, USA
T1 sequence (Q14508 31-124): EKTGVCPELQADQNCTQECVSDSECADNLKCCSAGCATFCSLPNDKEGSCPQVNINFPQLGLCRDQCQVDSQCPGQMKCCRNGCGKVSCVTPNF
The experiment in a line: Binding affinity Kd, synthesized peptide vs fluorescently labeled protein, Monolith NT.115. The conditions noted are these: HE4 protein labeled RED-NHS, read-out: binding affinity Kd (dissociation constant). As to the method:
(§1) In order to evaluate the binding affinity and specificity of the discovered SEQ ID NO: 1 peptide to the CA125 protein, and the binding affinity and specificity of the SEQ ID NO: 2 peptide to HE4, ELISA assay was performed according to the manufacturer's instructions using CA125 protein (R&D Systems Inc, MN, USA), HE4 protein (Sinobiological, PA, USA), HRP-conjugated M13 antibody (Sinobiological, PA, USA), and TMB solution (Thermo Scientific, MA, USA). In addition, to measure the binding affinity Kd (dissociation constant), the discovered peptides of SEQ ID NO: 1 and SEQ ID NO: 2 were synthesized (Biostem, Suwon, Korea), CA125 protein and HE4 protein were each fluorescently labeled using Protein Labeling kit RED-NHS 2nd Generation (NanoTemper Technologies, Munich, Germany). Afterwards, the binding affinity between peptide and protein was measured using Monolith NT.115 (NanoTemper Technologies, Munich, Germany) according to the manufacturer's instructions.

Experiment [2] addresses T1, HE4 protein. The experiment in a line: ELISA assay of binding and specificity to HE4 protein. The conditions noted are these: HRP-conjugated M13 antibody, TMB, FIG. 1. On the procedure: as §1
(In general: ELISA stands for enzyme-linked immunosorbent assay.)

Experiment [3] has as its target T2, CA125 protein (Homo sapiens, UniProt Q8WXI7).
T2 construct: purchased R&D Systems Inc, MN, USA
T2 sequence (Q8WXI7 12660-12923 limits assumed): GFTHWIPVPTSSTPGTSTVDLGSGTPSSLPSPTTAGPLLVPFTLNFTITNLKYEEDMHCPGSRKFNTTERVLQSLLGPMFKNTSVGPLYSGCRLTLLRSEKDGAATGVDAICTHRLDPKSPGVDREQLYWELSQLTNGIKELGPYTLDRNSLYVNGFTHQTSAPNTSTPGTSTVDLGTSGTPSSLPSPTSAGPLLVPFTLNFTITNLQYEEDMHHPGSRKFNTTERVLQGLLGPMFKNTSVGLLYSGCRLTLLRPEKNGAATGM
The experiment in a line: Binding affinity Kd, synthesized peptide vs fluorescently labeled protein, Monolith NT.115. Conditions: CA125 protein labeled RED-NHS, read-out: binding affinity Kd (dissociation constant). On the procedure: as §1

For experiment [4], the target named is T2, CA125 protein. The experiment in a line: ELISA assay of binding and specificity to CA125 protein. The conditions noted are these: HRP-conjugated M13 antibody, TMB, FIG. 1. As to the method:
as §1

As for LGSKPIN [SEQ ID NO: 2, LGSKPIN], the Kd at HE4 protein [1] was 15.3 ± 12 µM. On HE4 protein [2], the “specific binding to the HE4 protein” value is “specifically bound”.

“HTHGAARVPDHR [SEQ ID NO: 1, HTHGAARVPDHR]”: on CA125 protein [3], the Kd is 0.0114 ± 0.00423 µM. In addition, the “specific binding to the CA125 protein” value on CA125 protein [4] was “specifically bound”.

What is called Kd is the constant that tells how readily two partners part at equilibrium.
